Assays:
Carbonic anhydrase 4 = biological target: T1, Carbonic anhydrase 4 (Bos taurus, UniProt Q95323)
T1 sequence (Q95323 whole entry): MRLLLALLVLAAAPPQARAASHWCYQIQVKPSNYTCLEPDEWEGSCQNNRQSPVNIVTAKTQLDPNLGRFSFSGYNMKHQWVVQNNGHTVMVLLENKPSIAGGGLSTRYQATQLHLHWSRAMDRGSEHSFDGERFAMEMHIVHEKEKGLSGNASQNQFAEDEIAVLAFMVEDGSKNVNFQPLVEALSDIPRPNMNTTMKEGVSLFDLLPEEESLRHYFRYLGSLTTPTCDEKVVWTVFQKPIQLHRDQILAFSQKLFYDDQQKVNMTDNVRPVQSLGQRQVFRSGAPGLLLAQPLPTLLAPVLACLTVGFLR
Description: Inhibitory activity against bovine carbonic anhydrase IV

Carbonic anhydrase 1 = Carbonic anhydrase 1 (Homo sapiens, UniProt P00915)
Chain of Carbonic anhydrase 1 (P00915 whole entry): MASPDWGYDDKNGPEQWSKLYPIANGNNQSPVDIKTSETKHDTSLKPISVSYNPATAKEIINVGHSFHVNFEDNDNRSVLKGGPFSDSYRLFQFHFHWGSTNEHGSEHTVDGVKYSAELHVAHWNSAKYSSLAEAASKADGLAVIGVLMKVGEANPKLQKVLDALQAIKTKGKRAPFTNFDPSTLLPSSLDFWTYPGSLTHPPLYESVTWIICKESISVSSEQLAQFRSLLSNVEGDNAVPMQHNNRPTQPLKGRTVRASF
Description: Inhibitory activity against Human carbonic anhydrase I

| Ki (Carbonic anhydrase 4) [nM] | Ki (Carbonic anhydrase 1) [nM] | Compound |
| --- | --- | --- |
| 76 | 300 | NS(=O)(=O)c1ccc(NC(=O)CN(CCOCCOCCN(CC(=O)O)CC(=O)Nc2ccc(S(N)(=O)=O)cc2)CC(=O)O)cc1 |
| 69 | 700 | NS(=O)(=O)c1ccc(NC(=O)CN(CCN(CC(=O)O)CC(=O)O)CC(=O)O)c(Cl)c1 |
| 24 | 76 | NS(=O)(=O)c1ccc(NC(=O)CN(CCOCCOCCN(CC(=O)O)CC(=O)O)CC(=O)O)c(I)c1 |
| 930 | 30500 | NS(=O)(=O)c1ccc(NNC(=O)CN(CC(=O)O)CC(=O)O)cc1 |
| 106 | 520 | Cn1nc(S(N)(=O)=O)s/c1=N/C(=O)CN(CC(=O)O)CC(=O)O |
| 115 | 430 | NS(=O)(=O)c1ccc(NC(=O)CNCCNCC(=O)O)c(I)c1 |
| 90 | 220 | NS(=O)(=O)c1ccc(NC(=O)CN(CCN(CC(=O)O)c2ccccc2O)c2ccccc2O)c(I)c1 |
| 103 | 780 | NS(=O)(=O)c1ccc(NC(=O)CNCCNCC(=O)O)c(F)c1 |
| 10 | 43 | NS(=O)(=O)c1nc2ccc(OC(=O)CN(CCN(CC(=O)O)CC(=O)O)CC(=O)O)cc2s1 |
| 257 | 3450 | NS(=O)(=O)c1ccc(CCNC(=O)CNCC(=O)O)cc1 |
| 37 | 225 | NS(=O)(=O)c1nnc(NC(=O)CN(CCN(CC(=O)O)CC(=O)O)CC(=O)O)s1 |
| 96 | 130 | NS(=O)(=O)c1cc(S(N)(=O)=O)c(NC(=O)CN(CCN(CC(=O)O)CC(=O)O)CC(=O)O)c(Cl)c1Cl |
| 5 | 21 | NS(=O)(=O)c1nc2ccc(OC(=O)CN(CCOCCOCCN(CC(=O)O)CC(=O)Oc3ccc4nc(S(N)(=O)=O)sc4c3)CC(=O)O)cc2s1 |
| 450 | 20600 | NS(=O)(=O)c1ccc(NC(=O)CN(CC(=O)O)CC(=O)O)cc1 |
| 800 | 9200 | NS(=O)(=O)c1ccccc1NC(=O)CN(CCN(CC(=O)O)CC(=O)O)CC(=O)O |
| 96 | 300 | NS(=O)(=O)c1ccc(CCOC(=O)CN(CCOCCOCCN(CC(=O)O)CC(=O)OCCc2ccc(S(N)(=O)=O)cc2)CC(=O)O)cc1 |
| 114 | 515 | NS(=O)(=O)c1ccc(NC(=O)CNCC(=O)O)c(I)c1 |
| 6 | 30 | NS(=O)(=O)c1nc2ccc(OCCOC(=O)CN(CCOCCOCCN(CC(=O)O)CC(=O)O)CC(=O)O)cc2s1 |
| 320 | 1100 | NS(=O)(=O)c1ccc(CCOC(=O)CN(CC(=O)O)CC(=O)O)cc1 |
| 39 | 240 | NS(=O)(=O)c1nnc(NC(=O)CCNC(=O)CNCCNCC(=O)O)s1 |
| 1240 | 27000 | NS(=O)(=O)c1ccccc1NC(=O)CNCC(=O)O |
| 9 | 43 | NS(=O)(=O)c1nc2ccc(OCCOC(=O)CNCCNCC(=O)O)cc2s1 |
| 107 | 405 | NS(=O)(=O)c1cc(S(N)(=O)=O)c(NC(=O)CNCC(=O)O)c(Cl)c1Cl |
| 35 | 240 | NS(=O)(=O)c1ccc(NC(=O)CN(CCN(CC(=O)O)CC(=O)Nc2ccc(S(N)(=O)=O)cc2F)CC(=O)O)c(F)c1 |
| 57 | 250 | Cn1nc(S(N)(=O)=O)s/c1=N/C(=O)CN(CCN(CC(=O)O)c1ccccc1O)c1ccccc1O |
| 4 | 23 | NS(=O)(=O)c1nc2ccc(NC(=O)CN(CCOCCOCCN(CC(=O)O)CC(=O)Nc3ccc4nc(S(N)(=O)=O)sc4c3)CC(=O)O)cc2s1 |

| Ki (Carbonic anhydrase 4) [nM] | Ki (Carbonic anhydrase 1) [nM] | Compound |
| --- | --- | --- |
| 400 | 9500 | NS(=O)(=O)c1ccc(NNC(=O)CN(CCOCCOCCN(CC(=O)O)CC(=O)NNc2ccc(S(N)(=O)=O)cc2)CC(=O)O)cc1 |
| 130 | 250 | NS(=O)(=O)c1nnc(NC(=O)CNCCNCC(=O)O)s1 |
| 11 | 48 | NS(=O)(=O)c1nc2ccc(NC(=O)CN(CCN(CC(=O)O)CC(=O)O)CC(=O)O)cc2s1 |
| 36 | 50 | NS(=O)(=O)c1cc(S(N)(=O)=O)c(NC(=O)CN(CCOCCOCCN(CC(=O)O)CC(=O)Nc2cc(Cl)c(S(N)(=O)=O)cc2S(N)(=O)=O)CC(=O)O)cc1Cl |
| 135 | 1200 | NS(=O)(=O)c1ccc(CNC(=O)CN(CCN(CC(=O)O)c2ccccc2O)c2ccccc2O)cc1 |
| 7 | 32 | Cn1nc(S(N)(=O)=O)s/c1=N/C(=O)CN(CCOCCOCCN(CC(=O)O)CC(=O)/N=c1/sc(S(N)(=O)=O)nn1C)CC(=O)O |
| 13 |  | NS(=O)(=O)c1ccc(CCNC(=O)CN(CCN(CC(=O)O)CC(=O)NCCc2ccc(S(N)(=O)=O)cc2)CC(=O)O)cc1 |
| 425 |  | NS(=O)(=O)c1cccc(NC(=O)CN(CCN(CCN(CC(=O)O)CC(=O)Nc2cccc(S(N)(=O)=O)c2)CC(=O)O)CC(=O)O)c1 |
| 8 |  | NS(=O)(=O)c1nnc(NC(=O)CCNC(=O)CN(CCN(CCN(CC(=O)O)CC(=O)NCCC(=O)Nc2nnc(S(N)(=O)=O)s2)CC(=O)O)CC(=O)O)s1 |
| 37 |  | NS(=O)(=O)c1ccc(CNC(=O)CN(CCN(CCN(CC(=O)O)CC(=O)NCc2ccc(S(N)(=O)=O)cc2)CC(=O)O)CC(=O)O)cc1 [listing 1 of 2 here] |
| 115 |  | NS(=O)(=O)c1ccc(CCOC(=O)CN(CCN(CCN(CC(=O)O)CC(=O)OCCc2ccc(S(N)(=O)=O)cc2)CC(=O)O)CC(=O)O)cc1 |
| 25 |  | NS(=O)(=O)c1cc(S(N)(=O)=O)c(NC(=O)CN(CCN(CCN(CC(=O)O)CC(=O)Nc2c(S(N)(=O)=O)cc(S(N)(=O)=O)c(Cl)c2Cl)CC(=O)O)CC(=O)O)c(Cl)c1Cl |
| 4 |  | NS(=O)(=O)c1nnc(NC(=O)CN(CCN(CCN(CC(=O)O)CC(=O)Nc2nnc(S(N)(=O)=O)s2)CC(=O)O)CC(=O)O)s1 |
| 190 |  | NS(=O)(=O)c1ccc(CCOC(=O)CN(CCN(CCN(CC(=O)O)CC(=O)O)CC(=O)O)CC(=O)O)cc1 |
| 330 |  | NS(=O)(=O)c1ccccc1NC(=O)CN(CCN(CCN(CC(=O)O)CC(=O)Nc1ccccc1S(N)(=O)=O)CC(=O)O)CC(=O)O |
| 550 |  | NS(=O)(=O)c1ccccc1NC(=O)CN(CCN(CCN(CC(=O)O)CC(=O)O)CC(=O)O)CC(=O)O |
| 40 |  | NS(=O)(=O)c1ccc(CNC(=O)CN(CCN(CCN(CC(=O)O)CC(=O)O)CC(=O)O)CC(=O)O)cc1 |
| 52 |  | NS(=O)(=O)c1cc(S(N)(=O)=O)c(NC(=O)CN(CCN(CCN(CC(=O)O)CC(=O)O)CC(=O)O)CC(=O)O)cc1Cl |
| 21 |  | NS(=O)(=O)c1ccc(CNC(=O)CN(CCN(CCN(CC(=O)O)CC(=O)NCc2ccc(S(N)(=O)=O)cc2)CC(=O)O)CC(=O)O)cc1 [listing 2 of 2 here] |
| 10 |  | NS(=O)(=O)c1ccc(CNC(=O)CN(CCN(CC(=O)O)CC(=O)NCc2ccc(S(N)(=O)=O)cc2)CC(=O)O)cc1 |
| 100 |  | NS(=O)(=O)c1ccc(NC(=O)CN(CCN(CCN(CC(=O)O)CC(=O)Nc2ccc(S(N)(=O)=O)cc2)CC(=O)O)CC(=O)O)cc1 |
| 18 |  | NS(=O)(=O)c1ccc(NC(=O)CN(CCN(CCN(CC(=O)O)CC(=O)Nc2ccc(S(N)(=O)=O)cc2F)CC(=O)O)CC(=O)O)c(F)c1 |
| 29 |  | NS(=O)(=O)c1ccc(NC(=O)CN(CCN(CCN(CC(=O)O)CC(=O)O)CC(=O)O)CC(=O)O)c(F)c1 |
| 210 |  | NS(=O)(=O)c1ccc(NC(=O)CN(CCN(CC(=O)O)CC(=O)Nc2ccc(S(N)(=O)=O)cc2)CC(=O)O)cc1 |
| 16 |  | NS(=O)(=O)c1nnc(NC(=O)CCNC(=O)CN(CCN(CCN(CC(=O)O)CC(=O)O)CC(=O)O)CC(=O)O)s1 |
